Article PMC12188386, “Selective CBP/EP300 Bromodomain Inhibitors: Novel Epigenetic Tools to Counter TNF-α-Driven Inflammation” (JACS Au, 2025)
Where two headings read alike, the source gives them in different places.

How the values were obtained:
[1] = biological target: CBP-BRD; parameters: method as in Pegg et al., 2017; Brooks et al., 2017; conditions: SPR, ref Pegg et al., 2017, Brooks et al., read-out: Affinity to CBP-BRD, Kd; cited from earlier work
[2] = test system: BRD4(1)-BRD; conditions: cited from earlier work
[3] = test system: MRC5 cells; test: viability assay (resazurin); assay type: cell-based; conditions: three-day treatment, concentration resulting in 70 % viability
Method: MRC5 (2x10^3 cells/well) or THP-1 (8x10^3 cells/well) cells were plated onto 96 well plates and treated with compounds at a final DMSO concentration of 0.5 % (MRC5) or 0.1 % (THP-1).
After 3 days of treatment, resazurin (Acros Organics) was added at a final concentration of 86 μ and incu ated for 2h15 (MRC5) or 3 h (THP-1). Fluorescence (ex. 560 nm, em. 590 nm) was read using a SpectraMax M5 (Molecular devices). GI30 values were calculated as the compound concentration resulting in 70 % viability compared to DMSO treated controls using a nonlinear regression fit using GraphPad Prism with the following equation: (Y=Bottom + (100-Bottom)/(1+(IC50/X)^HillSlope)). […]
After 1.5 h, mice were injected with 10 µL of the prepared CAPTISOL […]
foodpad and also intraperitoneally (for i.p. injection, the 10 µL of CAPTISOL solution was diluted to a final volume of 100 µL using PBS). Organs were collected 5 h after TNF-α […]
LEGENDPlexTM assays (Mouse Pro-inflammatory Chemokine Panel and Mouse Inflammation Panel; Biolegend) were performed to monitor cytokine/chemokine expression. Briefly, popliteal LNs were collected and carefully disrupted in […] ice-cold phosphate buffer, minimizing cell rupture. The suspension was centrifuged at 1,500 rpm for 5 min, and the […]

[4] = test system: TNF-α-induced IL-8 secretion from THP-1 cells; test: cytokine protein measurement (LEGENDPlex); assay type: cell-based, human; conditions: 10 ng/mL TNF-α, 1 μM compound
Method: For cytokine expression determination, 5x10^5 THP-1 cells were plated on 12 well plates the day prior to treatment with 10 ng/mL recombinant human TNF -α (aa 77-233) protein (R&D systems, 10291 -TA) and compounds at a final concentration of 0.1 % DMSO. In all cases, total […]
Cytokine protein measurements
THP-1 cells were plated and treated as for the quantitative RT -PCR, then the cell culture medium was harvested by pelleting the cells (300g, 3min) and taking the supernatant .
Cytokine protein concentrations were determined using the LEGENDPlexTM Human Inflammation Panel 1 (BioLegend) assay with 25 µL of culture medium following the manufacturer’s instructi ns. amp es were ana zed f w c t metr n an rtessa Biosciences), and data was analyzed using LEGENDPlex software (BioLegend).

[5] = kinetic solubility; assay type: physicochemical; conditions: PBS pH 7.4, 37°C, 90 min; ± st. dev. between technical replicates
Method: Starting from an initial concentration of 100, 50 or 20 µM, a 2-fold serial dilution of the compound (10 mM stock in DMSO) was prepared in a mixture of ACN/Buffer (PBS, pH = 7.4) 2:8, with 1% DMSO. 350 µL was transferred to a 96-Well Plate (Greiner, UV-star) then UV absorption (240-400 nm, 10 nm steps) was measured. The absorption was blank-corrected and plotted against concentration. The wavelength (λ) providing the best fitting straight line […]
(§1) was used as the calibration curve. To obtain saturated solutions of the compounds of interest, in duplicates 4.4 µL of a 10 or 5 mM stock in DMSO was added to 436 µL Buffer (PBS, pH = 7.4), to give a final concentration of 100 or 50 µM. Samples were incubated on a shaker (500 rpm) at 37°C for 90 minutes and then filtered (Millex-GV 13 mm, 0.22 µm). 304 µL of the filtrate was mixed with 76 µL of acetonitrile on a dilution plate, from which 350 µL was transferred to a UV-plate and UV-absorption was read using a SpectraMax M5 (Molecular devices). The absorbance was blank-corrected and compared to the calibration curve to […]
(§2) solubility. The wavelengths used for the calibration curve are available in Table S4.
(§3) Based on the known density of 12.5 % CAPTISOL® solution (d = 1.05755 g/mL at 25 °C), the precise weight of the resulting solution and so the required amount of water by weight was calculated. The water was added portion wise with agitation, vortexing and sonication cycles in between additions. The saturated solutions were then filtered (Millex-GV 13 mm, 0.22 µm). In duplicates, aliquots of the filtrates were taken and diluted with blank 12.5 % CAPTISOL® water solution in either a 1:14 (higher sol. compounds) or 1:7 (lower sol. compounds) ratio, 350 µL was transferred to a 96-Well Plate (Greiner, UV-star) then UV absorption (240-400 nm, 10 nm steps) was measured using a SpectraMax M5 (Molecular devices). The absorption was blank-corrected, compared to the calibration curve obtained during the solubility measurement method above and finally corrected for the dilution ratio to obtain the compound concentration in the saturated 12.5 % CAPTISOL® solution. The calculated concentrations are available in Table S4.
(§4) BROMOscan™ assays (provided by Eurofins DiscoverX, US)1,2 […]
coli host derived from the BL21 strain. E. coli were grown to log-phase and infected with T7 phage from a frozen stock (multiplicity of infection = 0.4) and incubated with shaking at 32°C until lysis (90-150 minutes). The lysates were centrifuged (5,000 x g) and filtered (0.2µm) to remove cell debris. Streptavidin-coated magnetic beads were treated with biotinylated small molecule or acetylated peptide ligands for 30 minutes at room temperature to generate affinity resins for bromodomain assays. The liganded beads were blocked with excess biotin and washed with blocking buffer (SeaBlock (Pierce), 1 % BSA, 0.05 % Tween 20, 1 mM DTT) to remove unbound ligand and to reduce non specific phage binding. Binding reactions were assembled by combining bromodomains, liganded affinity beads, and test compounds (see […]
Sodium azide, 7.4 mM DTT). All reactions were performed in polypropylene 384-well plates in a final volume of 0.02 mL. The assay plates were incubated at room temperature with […]
20). The beads were then resuspended in elution buffer (1x PBS, 0.05% Tween 20, 2 µM non-

[6] = concentration in saturated 12.5% CAPTISOL solution; assay type: physicochemical; conditions: filtered 12.5 w/v% CAPTISOL in water, st. dev. between technical replicates (n=2)
Method: as §1, §2
Sample preparation in CAPTISOL® […]
as §3, with “lower solubility (2) compounds respectively in a 12.5 w/v% CAPTISOL® solution in water. In a precisely tared vial, required amounts of compounds and CAPTISOL® were weighed out as solids. Based” for “Based”
as §4
coli host derived from the BL21 strain. […]

[7] = test system: CBP-BRD; conditions: TR-FRET; ref Crawford et al., 2016; read-out: Affinity to CBP-BRD, IC50 (Published); cited from earlier work
[8] = test system: TNF-α-induced cytokine expression in THP-1 cells; test: cytokine mRNA expression by RT-qPCR; assay type: cell-based, human; conditions: 1 h co-treatment of THP-1 cells with 10 ng/mL TNF-α and 1 μM compound
Method: For cytokine expression determination, 5x10^5 THP-1 cells were plated on 12 well plates the day prior to treatment with 10 ng/mL recombinant human TNF -α (aa 77-233) protein (R&D systems, 10291 -TA) and compounds at a final concentration of 0.1 % DMSO. In all cases, total
RNA was extracted using the NucleoSpin® RNA kit (Machery -Nagel) and used for cDNA synthesis with the High -Capacity cDNA Reverse Transcription kit (Applied Biosystems). RT-qPCR reactions were performed using PowerSYBR™ green PCR Master Mix (Applied Biosystems) and a LightCycler® 480 (Roche). cDNA was denatured for 10 min at 95 °C followed by 40 cycles of 15 s at 95 °C and 1 min at 60 °C. Cp values were determined as the maximum of the second derivative and target gene expression was compared to that of hprt from the same sample using the 2-ΔCp method. Gene expression was then normalized to the average of the control samples from the same day, or all biological replicates. […]

[9] = test system: immune cell recruitment to the popliteal lymph node; test: TNF-α induced inflammation model, flow cytometry of pLN; assay type: in vivo, mouse; conditions: mice, flow cytometry 5 h post-injection of rmTNF-α, vs control group
[10] = biological target: CBP-BRD; conditions: ITC; ref Picaud et al., 2015; Popp et al., 2016; read-out: Affinity to CBP-BRD, Kd; cited from earlier work

In the case of `CO[C@H]1CC[C@H](n2c([C@@H]3CCCC(=O)N3c3ccc(F)c(F)c3)nc3cc(-c4c(C)noc4C)ccc32)CC1` [CCS1477], the Kd [1] is given as 1.7 nM and the “Sel. over BRD4(1)-BRD” value ([2]; ref Pegg et al., 2017, Brooks et al.) is given as 130 fold.

In the case of `CC(=O)N1CCc2c(c(Nc3ccc(-c4cnn(C)c4)cc3F)nn2[C@H]2CCOC2)C1` [GNE-272, reference compound], the GI30 [3] is reported as > 10000 nM, the “TNF-α-induced IL-8 protein secretion” value [4] is reported as “significantly reducing its TNF-α-induced secretion” and the “Kin. Sol.” value [5] is reported as 75.1 ± 1.0 µM. The “Conc. in 12.5% Captisol sol.” value [6] was 715 ± 12 µM, the IC50 [7] was 20 nM and the “TNF-α-induced expression of il1β, il8, mcp-1 and tnf-α (mRNA)” value [8] was “inhibited expression to a greater extent than the less potent but more soluble inhibitor 5”. For the same molecule, the “recruitment of lymphocytes (T and B cells), dendritic cells and neutrophils to the pLN” value [9] was “significantly inhibited the recruitment of lymphocytes”.

In the case of `CCC(=O)N1CCOc2c(cc(-c3ccc(OC)c(OC)c3)cc2OC[C@H]2CCCN(C)C2)C1` [I-CBP112], the “Sel. over BRD4(1)-BRD” value ([2]; ref Picaud et al., 2015, Popp et al., 2016) is listed as 37 fold and the Kd [10] is listed as 151 nM.
